Earlier results, collected in patent US8431165B2, “Medicament for treatment of cancer and other diseases” (Swing Aerobics Licensing, Inc., priority 2004, dated 2013).

Details: adult men and women, mean+SD

CC/C=C\C/C=C\C/C=C\CCCCCCCC(=O)O [alpha-linolenic acid]
average estimated conversion of alpha-linolenic acid to docosahexaenoic acid: 3.6±3.8%
average estimated conversion of alpha-linolenic acid to n-3 LC-PUFA metabolites: 17.3±12.8%
